This note sets out measurements from patent US20100022572A1, “NOVEL SPIRO COMPOUND AND MEDICINE COMPRISING THE SAME” (KOWA COMPANY, LTD., priority 2008, published 2010).

One assay has as its target T1, human 11β-HSD1 (Homo sapiens, UniProt P28845).
T1 construct: The obtained PCR products of about 0.9 kbp, 1.2 kbp, and 0.9 kbp were subcloned into an expression vector pcDNA3.1+/Zeo; made in house
Put plainly: Assay of enzyme inhibitory activity, human 11β-HSD1 (lysate of stably expressing HEK293 cells, cortisol ELISA). The conditions noted are these: Table 1; human 11β-HSD1, cell lysate, 100 nmol/L substrate, 37° C. 1 hour. It is filed as biochemical. How it is done:
(§1) Human 11β-HSD1-, human 11β-HSD2- and mouse 11β-HSD1-inhibitory effect • 1. Human 11β-HSD1-, Human 11β-HSD2- and Mouse 11β-HSD1-Gene Clonings and Establishment of Stably Expressing Cells
(§2) Human 11β-HSD1-, human 11β-HSD2-, and mouse 11β-HSD1-gene clonings were conducted using as a template a reverse transcription product of human-liver RNA, human-kidney RNA (CELL APPLICATIONS), and mouse-kidney RNA respectively, by means of PCR cloning with reference to nucleotide sequences of Genbank Accession Nos. NM_005525, NM_000196, and NM_008288. The obtained PCR products of about 0.9 kbp, 1.2 kbp, and 0.9 kbp were subcloned into an expression vector pcDNA3.1+/Zeo (Invitrogen).
(§3) Human 11β-HSD1- and human 11β-HSD2-expressing vectors were transfected into human kidney-derived cell line, HEK293 cells, using a transfection reagent, jet PEI (Funakoshi). Mouse 11β-HSD1 was transfected to Chinese hamster ovary-derived cell line, CHO-K1 cells. Selection was conducted with 200-400 μg/mL of zeocine (Invitrogen) to provide stably expressing-cell clones. The stably expressing cells were suspended in buffer solution A (20 mmol/L Tris-HCl, pH 7.4, 250 mmol/L sucrose, 1 mmol/L EGTA, 1 mmol/L EDTA, 1 mmol/L MgCl2), sonicated, and then stored at −80° C. • 2. Assay of Enzyme Inhibitory Activity
(§4) An enzymatic reaction was conducted using a polystyrene 96-well plate. Each well was added with 1 μL of a test agent dissolved in DMSO and then diluted (0.003 to 3 mmol/L), and further added with 10 μL of cell lysate diluted to a concentration of 0.1 mg/mL to 0.4 mg/mL. Next, 90 μL of buffer solution A containing substrate (100 nmol/L cortisone or cortisol) and coenzyme (400 μmol/L NADPH or NAD+) was added and the mixture was incubated at 37° C. for 1 hour. The enzymatic reaction was stopped by treating at 95° C. for 3 minutes. Cortisol that was present in the reaction solution was determined by a competitive ELISA shown below.
(§5) Anti-rabbit IgG antibody (Chemi-con) diluted to 2 μg/mL with carbonate buffer solution (pH 9.6) was added in 100 μL each to a 96-well immuno plate (Nunc) and immobilized by an incubation at 4° C. overnight. 50 μL of enzymatic reaction solution was put onto the plates, and further, anti-cortisol antibody (Cosmo Bio) and HRP-labeled cortisol (Cosmo Bio), diluted with buffer solution B (25 mmol/L Tris-HCl pH 7.4, 137 mmol/L NaCl, 2.68 mmol/L KCl), were added in 50 μL respectively and incubated at 4° C. overnight. After washed three times with buffer solution B containing 0.05% Tween 20, the plates were allowed to develop color by adding 100 μL of color reagent, TMB (Moss). The color reaction was stopped by 25 μL of 1 mol/L sulfuric acid and the absorbance was determined at 450 nm with a microplate reader (Molecular Device, VersaMax).
The values of human 11β-HSD1, human 11β-HSD2, and mouse 11β-HSD1 activities were subtracted from 100, and the resultant values were regarded as the respective 11β-HSD inhibition rates of example compounds. For each example compound, the value of 50% inhibitory concentration (IC50) was calculated from 11β-HSD inhibition rates at plural concentrations, for 11β-HSD1 and activities.
Background: In an ELISA, binding on a coated surface is turned into a signal by an enzyme label.

The target in a further assay is T2, human 11β-HSD2 (Homo sapiens, UniProt P80365).
T2 construct: The obtained PCR products of about 0.9 kbp, 1.2 kbp, and 0.9 kbp were subcloned into an expression vector pcDNA3.1+/Zeo; made in house
T2 sequence (P80365 1-405): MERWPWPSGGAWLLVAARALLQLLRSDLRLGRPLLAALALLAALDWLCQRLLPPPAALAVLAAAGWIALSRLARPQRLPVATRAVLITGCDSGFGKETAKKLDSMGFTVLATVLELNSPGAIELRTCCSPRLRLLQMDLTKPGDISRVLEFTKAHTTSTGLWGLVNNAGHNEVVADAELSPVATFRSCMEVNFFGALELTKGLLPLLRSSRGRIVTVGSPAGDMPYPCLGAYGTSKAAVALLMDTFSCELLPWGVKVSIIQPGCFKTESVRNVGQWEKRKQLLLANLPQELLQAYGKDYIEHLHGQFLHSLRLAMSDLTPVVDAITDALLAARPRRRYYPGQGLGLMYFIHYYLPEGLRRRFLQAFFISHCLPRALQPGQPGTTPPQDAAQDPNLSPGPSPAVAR
Put plainly: Assay of enzyme inhibitory activity, human 11β-HSD2 (lysate of stably expressing HEK293 cells, cortisol ELISA). The conditions noted are these: Table 1; human 11β-HSD2, cell lysate, 100 nmol/L substrate, 37° C. 1 hour. The assay is classed as biochemical. How it is done: as §1, §2, §3, §4
as §5, with “VersaMax). […]” for “VersaMax).”

T1 sequence (P28845 whole entry): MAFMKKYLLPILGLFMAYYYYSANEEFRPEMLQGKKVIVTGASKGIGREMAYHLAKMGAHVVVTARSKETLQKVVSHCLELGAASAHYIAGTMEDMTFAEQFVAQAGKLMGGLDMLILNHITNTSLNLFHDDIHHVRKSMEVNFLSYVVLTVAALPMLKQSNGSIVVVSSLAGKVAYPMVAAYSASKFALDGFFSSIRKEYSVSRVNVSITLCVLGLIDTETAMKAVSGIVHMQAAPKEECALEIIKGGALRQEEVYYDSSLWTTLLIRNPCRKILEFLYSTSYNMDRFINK

Broadly, the IC50 is the point on the concentration scale where inhibition reaches its midpoint. A higher IC50 goes with a need for much substance. As for `CC1Cc2ccccc2C12CCN(C(=O)COc1ccccc1C(F)(F)F)CC2` (centres unmarked) [Example 25, 1-[2-methyl-2,3-dihydrospiro(indene-1,4′-piperidine)-1′-yl]-2-[2-(trifluoromethyl)phenoxy]ethanone], the IC50 against human 11β-HSD1 was determined as 0.12 µM. This lies in the sub-micromolar range. As to `O=C(COc1ccccc1C(F)(F)F)N1CCC2(CC1)C(Br)=Cc1ccccc12` [Example 23, 1-[2-bromospiro(indene-1,4′-piperidine)-1′-yl]-2-[2-(trifluoromethyl)phenoxy]ethanone], the IC50 against human 11β-HSD1 worked out at 0.049 µM. This IC50 is about 2.4-fold lower than that of the molecule before.

`O=C(COc1ccccc1C(F)(F)F)N1CCC2(CCc3ccccc32)CC1` [Example 10, 1-[2,3-dihydrospiro(indene-1,4′-piperidine)-1′-yl]-2-[2-(trifluoromethyl)phenoxy]ethanone] registered an IC50 against human 11β-HSD1 of 0.025 µM. With `O=C(COc1ccccc1C(F)(F)F)N1CCC2(C=Cc3ccccc32)CC1` [Example 1, 1-[spiro(indene-1,4′-piperidine)-1′-yl]-2-[2-(trifluoromethyl)phenoxy]ethanone], the IC50 against human 11β-HSD2 is over 30 µM; on human 11β-HSD1 it was 0.029 µM. With `CC(C)C1=Cc2ccccc2C12CCN(C(=O)COc1ccccc1C(F)(F)F)CC2` [Example 19, 1-[2-isopropylspiro(indene-1,4′-piperidine)-1′-yl]-2-[2-(trifluoromethyl)phenoxy]ethanone], the IC50 on human 11β-HSD1 turned out to be 0.34 µM. Still for that read-out and setting: the value for `O=C1CC2(CCN(C(=O)COc3ccccc3C(F)(F)F)CC2)c2ccccc21` [Example 13] was 1 µM. For `O=C(COc1ccccc1I)N1CCC2(C=Cc3ccccc32)CC1` [Example 4, 2-(2-iodophenoxy)-1-[spiro(indene-1,4′-piperidine)-1′-yl]ethanone], the IC50 was over 30 µM at human 11β-HSD2 and 0.11 µM against human 11β-HSD1. Consider `O=C(COc1ccccc1C(F)(F)F)N1CCC2(CC1)c1ccccc1CC2O` (centres unmarked) [Example 11, 1-[2-hydroxy-2,3-dihydrospiro(indene-1,4′-piperidine)-1′-yl]-2-[2-(trifluoromethyl)phenoxy]ethanone], for which the IC50 against human 11β-HSD1 is 0.23 µM. The same measure, in the same setting: under `CC1=CC2(CCN(C(=O)COc3ccccc3C(F)(F)F)CC2)c2ccccc21` [Example 24, 1-[3-methylspiro(indene-1,4′-piperidine)-1′-yl]-2-[2-(trifluoromethyl)phenoxy]ethanone] stands 0.066 µM; under `CCC1=Cc2ccccc2C12CCN(C(=O)COc1ccccc1C(F)(F)F)CC2` [Example 17, 1-[2-ethylspiro(indene-1,4′-piperidine)-1′-yl]-2-[2-(trifluoromethyl)phenoxy]ethanone], 0.048 µM. Take `CCc1ccccc1OCC(=O)N1CCC2(C=Cc3ccccc32)CC1` [Example 3, 2-(2-ethylphenoxy)-1-[spiro(indene-1,4′-piperidine)-1′-yl]ethanone]: the IC50 on human 11β-HSD2 was over 30 µM; against human 11β-HSD1, 0.72 µM. At human 11β-HSD1, `CCCC1=Cc2ccccc2C12CCN(C(=O)COc1ccccc1C(F)(F)F)CC2` [Example 18, 1-[2-propylspiro(indene-1,4′-piperidine)-1′-yl]-2-[2-(trifluoromethyl)phenoxy]ethanone] gave an IC50 of 0.24 µM. Same read-out and setting: the value for `O=C(COc1ccccc1C(F)(F)F)N1CCC2(CC1)C(C1CC1)=Cc1ccccc12` [Example 20, 1-[2-cyclopropylspiro(indene-1,4′-piperidine)-1′-yl]-2-[2-(trifluoromethyl)phenoxy]ethanone] was 0.088 µM. For the molecule `O=C(COc1ccccc1C(F)(F)F)N1CCC2(CC1)C(=O)Cc1ccccc12` [Example 12, 1′-[2-[2-(trifluoromethyl)phenoxy]acetyl]spiro(indene-1,4′-piperidine)-2(3H)-one], the IC50 is over 30 µM against human 11β-HSD2 and 0.077 µM at human 11β-HSD1. The molecule `O=C(COc1ccccc1C(F)(F)F)N1CCC2(CC1)C(Cl)=Cc1ccccc12` [Example 22, 1-[2-chlorospiro(indene-1,4′-piperidine)-1′-yl]-2-[2-(trifluoromethyl)phenoxy]ethanone] showed an IC50 against human 11β-HSD1 of 0.03 µM. Still for that read-out and setting: under `CC1=Cc2ccccc2C12CCN(C(=O)COc1ccccc1C(F)(F)F)CC2` [Example 16, 1-[2-methylspiro(indene-1,4′-piperidine)-1′-yl]-2-[2-(trifluoromethyl)phenoxy]ethanone] stands 0.043 µM.
